Data from US20060281769A1, “SYNERGISTIC MODULATION OF FLT3 KINASE USING THIENOPYRIMIDINE AND THIENOPYRIDINE KINASE MODULATORS” (priority 2005, published 2006).
“Also recorded” adds a separate entry of the source.

How the values were obtained:
MV4-11 AML cells = experiment: Cell proliferation assay MV4-11, single agents and FTI/FLT3 inhibitor combinations; assay type: cell-based, human; conditions: 72-hour cell proliferation assay, FLT3 dependent cells, depending on the cell type
Source text: (§1) All data points are an average of triplicate samples.
as §1

MV4-11 tumor xenografts = experiment: MV4-11 human tumor xenograft regression model in nude mice; assay type: in vivo; conditions: Tipifarnib 50 mg/kg oral single agent
Description: Female athymic nude mice (CD-1, nu/nu, 9-10 weeks old) were obtained from Charles River Laboratories (Wilmington, Mass.) and were maintained according to NIH standards. All mice were group housed (5 mice/cage) under clean-room conditions in sterile micro-isolator cages on a 12-hour light/dark cycle in a room maintained at 21-22° C. and 40-50% humidity. Mice were fed irradiated standard rodent diet and water ad libitum. All animals were housed in a Laboratory Animal Medicine facility that is fully accredited by the American Association for Assessment and Accreditation of Laboratory Animal Care (AAALAC). All procedures involving animals were conducted in compliance with the NIH Guide for the Care and Use of Laboratory Animals and all protocols were approved by an Internal Animal Care and Use Committee (IACUC).
On the day of study termination, a final tumor volume and final body weight were obtained on each animal. […]
The time course of the inhibitory effects of FLT3 inhibitor compounds on the growth of MV4-11 tumors is illustrated in FIG. 1. […] Percent inhibition (% I) of tumor growth was calculated versus tumor growth in the vehicle-treated Control group on the last study day.
(See FIG. 2). […] Percent Inhibition was calculated versus the mean tumor weight in the vehicle-treated control group. Statistical significance versus Control was determined by ANOVA followed by Dunnett's t-test: ** p<0.01. […]

[1] = Tolerability in tumor-bearing nude mice (body weight, overt clinical signs); conditions: either agent alone or in combination
Description: Female athymic nude mice weighing no less than 20-21 grams were inoculated subcutaneously in the left inguinal region of the thigh with 5×10^6 tumor cells in a delivery volume of 0.2 mL. For regression studies, the tumors were allowed to grow to a pre-determined size prior to initiation of dosing. […] Mice were dosed orally by gavage with vehicle (control group) or compound at various doses twice-daily (b.i.d.) during the week and once-daily (q.d.) on weekends. Dosing was continued for 11 consecutive days, depending on the kinetics of tumor growth and size of tumors in vehicle-treated control mice. […] During the study, tumor growth was measured three times-a-week (M, W, F) using electronic Vernier calipers. Tumor volume (mm^3) was calculated using the formula […], where L=length (mm) and W=width (shortest distance in mm) of the tumor. Body weight was measured three times-a-week and a loss of body weight >10% was used as an indication of lack of compound tolerability. […]
Female athymic nude mice weighing no less than 20-21 grams were inoculated subcutaneously in the left inguinal region of the thigh with 5×10^6 tumor cells in a delivery volume of 0.2 mL. For regression studies, the tumors were allowed to grow to a pre-determined size prior to initiation of dosing. […] During the study, tumor growth was measured three times-a-week (M, W, F) using electronic Vernier calipers. […]

[2] = system: relapsed and refractory AML; conditions: cited from earlier work
[3] = multicenter Phase II trial, relapsed AML
[4] = patients with relapsed and refractory AML, phase I

Which “potency for inhibition of proliferation, single agent” value (MV4-11 AML cells) does the source give for `Cn1cncc1C(N)(c1ccc(Cl)cc1)c1ccc2c(c1)c(-c1cccc(Cl)c1)cc(=O)n2C` (single isomer, unassigned; (+)) [Tipifarnib, (+)-6-[amino(4-chlorophenyl)(1-methyl-1H-imidazol-5-yl)methyl]-4-(3-chlorophenyl)-1-methyl-2(1H)-quinolinone] here?
The value was “high nanomolar to high picomolar”.

And the “effect on tumor volume versus control” value (MV4-11 tumor xenografts; nine days, Day 9)?
Its value is “not significantly reduced; also recorded: ineffective”.

What about the “effect on tumor growth” value (MV4-11 tumor xenografts; sixteen days) of the same compound?
The value was “ineffective”.

What about the “overt toxicity and adverse effects on body weight” value ([1]; 9-day treatment period) of the same compound?
The value was “No overt toxicity”.

What about the “overt toxicity and adverse effects on body weight” value ([1]; 16-day treatment period) of the same compound?
Its value is “No overt toxicity”.

What about the “>50% reduction in bone marrow blasts” value [2, 3] of the same compound?
Its value is 31 of 50.

And the “complete responses (bone marrow blasts <5%)” value [2, 3]?
The value was 17 of 50.

What about the “patients achieving complete remission” value [2, 4] of the same compound?
The value was 2 patients.

And the response rate [2, 4]?
The response rate was about 30%.
